Structures are written as SMILES.

Broadly, the IC50 is the concentration at which inhibition is half-maximal. A high value points to a need for much substance.

The target of one assay is T1, IRAK-1 (Homo sapiens, UniProt P51617).
T1 construct: His6 (N); Dr.Jaekel Pool B, 232Y08C1.IRK
Briefly: Test for the inhibition of IRAK1 (autophosphorylation, flashplate). The class given is biochemical. Particulars: enzyme. The method, boiled down: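 His6-IRAK1 (5.1 nM) autophosphorylation with 1 μM ATP plus ^33P-ATP, 180 min at 22° C, read as incorporated radioactivity. Blank with 1 μM staurosporin was subtracted and activity expressed as % of no-compound control. IC50 derived from the dilution series.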

The target of assay [1] is T2, IRAK-4 (Homo sapiens, UniProt Q9NWZ3).
T2 construct: His6 (N); Dr.Jaekel
T2 sequence (Q9NWZ3 1-460): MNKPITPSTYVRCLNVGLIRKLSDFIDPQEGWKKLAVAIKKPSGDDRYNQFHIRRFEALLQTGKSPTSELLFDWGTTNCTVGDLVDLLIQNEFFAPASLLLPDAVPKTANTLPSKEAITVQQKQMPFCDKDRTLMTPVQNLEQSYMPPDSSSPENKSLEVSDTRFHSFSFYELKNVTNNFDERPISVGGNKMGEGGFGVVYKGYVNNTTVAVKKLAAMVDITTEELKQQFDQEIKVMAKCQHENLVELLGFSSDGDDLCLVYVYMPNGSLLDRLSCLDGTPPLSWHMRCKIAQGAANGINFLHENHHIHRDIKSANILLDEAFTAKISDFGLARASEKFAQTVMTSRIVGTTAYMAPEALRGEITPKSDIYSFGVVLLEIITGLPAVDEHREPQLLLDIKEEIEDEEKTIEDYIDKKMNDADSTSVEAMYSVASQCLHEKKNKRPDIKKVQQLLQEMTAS
Put plainly: Test for the inhibition of IRAK4 (flashplate, 33P-ATP). The following applies: enzyme. The class given is biochemical. The method, boiled down:
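His6-IRAK4 (7.3 nM) with biotinylated STK substrate 1 peptide (300 nM) and 10 μM ATP spiked with ^33P-ATP, incubated 180 min at 22° C. Incorporated radioactivity counted; blank from 1 μM staurosporine subtracted, activity expressed as % of no-compound control, IC50 by statistical fit.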

The target of assay [2] is T2, IRAK-4. Briefly: IC50 IRAK-4 (cell). The class given is cell-based.

T1 sequence (P51617 whole entry, species assumed): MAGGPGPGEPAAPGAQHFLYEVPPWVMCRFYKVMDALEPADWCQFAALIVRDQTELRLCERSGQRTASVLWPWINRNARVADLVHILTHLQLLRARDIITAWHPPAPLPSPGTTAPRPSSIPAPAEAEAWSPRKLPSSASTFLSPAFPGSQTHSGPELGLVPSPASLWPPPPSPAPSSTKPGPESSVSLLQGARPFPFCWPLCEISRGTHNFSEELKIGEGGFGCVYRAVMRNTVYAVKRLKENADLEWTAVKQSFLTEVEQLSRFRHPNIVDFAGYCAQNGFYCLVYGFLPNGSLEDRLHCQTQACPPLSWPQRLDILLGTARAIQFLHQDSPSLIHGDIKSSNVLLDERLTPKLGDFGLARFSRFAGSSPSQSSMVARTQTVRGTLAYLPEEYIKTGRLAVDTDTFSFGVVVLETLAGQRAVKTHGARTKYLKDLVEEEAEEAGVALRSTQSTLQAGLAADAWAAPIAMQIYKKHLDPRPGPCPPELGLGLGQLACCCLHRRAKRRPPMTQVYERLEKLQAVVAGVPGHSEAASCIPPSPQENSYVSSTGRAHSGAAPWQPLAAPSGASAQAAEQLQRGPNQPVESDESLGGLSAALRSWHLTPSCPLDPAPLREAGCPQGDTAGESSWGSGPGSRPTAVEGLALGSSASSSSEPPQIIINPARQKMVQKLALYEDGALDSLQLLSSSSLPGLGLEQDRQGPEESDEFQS

On to `CC1CC(=O)NN=C1c1ccc2nc(-c3cc(-c4cnn(C)c4)cnc3N)[nH]c2c1` (racemic) [Compound A1, 6-{2-[2-amino-5-(1-methyl-1H-pyrazol-4-yl)pyridin-3-yl]-3H-benzimidazol-5-yl}-5-methyl-4,5-dihydro-2H-pyridazin-3-one], for which the IC50 against IRAK-1 was 0.1 to 10 µM; at IRAK-4 [1], above 10 µM.

`COc1ccc2nc(-c3cc(-c4cnn(C)c4)cnc3N)[nH]c2c1` [Compound A43]: the IC50 against IRAK-1 and on IRAK-4 [1] was 0.1 to 10 µM each time.

For `Cn1cc(-c2cnc(N)c(-c3nc4cccc(CO)c4[nH]3)c2)cn1` [Compound A52], the IC50 against IRAK-1 and against IRAK-4 [1] was 0.1 to 10 µM each time.

Turning to `COc1ccc2nc(-c3cc(-c4cnn(C5CCNCC5)c4)cnc3N)[nH]c2c1` [Compound A92, 3-(6-Methoxy-1H-benzimidazol-2-yl)-5-(1-piperidin-4-yl-1H-pyrazol-4-yl)pyridin-2-ylamine], the IC50 on IRAK-1 was in the range of 0.001 to 0.1 µM; on IRAK-4 [1], 0.001 to 0.1 µM; at IRAK-4 [2], 0.1 to 10 µM.

As to `Cn1cc(-c2cnc(N)c(-c3nc4ccc(C(=O)NCCc5ccc(F)c(F)c5)cc4[nH]3)c2)cn1` [Compound A128, N-[2-(3,4-difluorophenyl)ethyl]-2-[2-amino-5-(1-methyl-1H-pyrazol-4-yl)pyridin-3-yl]-3H-benzimidazole-5-carboxamide], the IC50 on IRAK-1 and on IRAK-4 [1] was 0.1 to 10 µM each time.

`COc1ccc2nc(-c3cc(-c4ccc(C(=O)NC5CCN(C)CC5)s4)cnc3N)[nH]c2c1` [Compound A133, N-(1-Methylpiperidin-4-yl)-5-[6-amino-5-(6-methoxy-1H-benzimidazol-2-yl)pyridin-3-yl]thiophene-2-carboxamide]: the IC50 against IRAK-1 and against IRAK-4 [1] was 0.001 to 0.1 µM throughout.

Consider `COc1ccc2nc(-c3cc(-c4ccsc4)cnc3N)[nH]c2c1` [Compound A144, 3-(6-methoxy-1H-benzimidazol-2-yl)-5-thiophen-3-ylpyridin-2-ylamine], for which the IC50 against IRAK-1 and against IRAK-4 [1] was 0.1 to 10 µM in each case.

Values taken from patent US8648201B2, “Aminopyridine derivatives for treating tumors and inflammatory diseases” (MERCK PATENT GmbH, priority 2009, dated 2014).
